The values below come from ChEMBL document CHEMBL3046649, “Fungitoxic and Phytotoxic Activities of Cinnamic Acid Esters and Amides” (2000).

Holding throughout (assay type): functional
In experiment [1] the test system is Brassica rapa subsp. chinensis. The experiment in a line: whole plant or invertebrate. The settings on record: 72 h, read-out: GI.
Description: Phytotoxicity against Brassica rapa subsp. chinensis assessed as growth inhibition of hypocotyl at 100 ppm treated to seeds after 3 days
Experiment [2] has as its system Brassica rapa subsp. chinensis. The experiment in a line: whole plant or invertebrate. Particulars: 72 h, read-out: GI. The source holds these as a separate data set.
Description: Phytotoxicity against Brassica rapa subsp. chinensis assessed as growth inhibition of radicle at 100 ppm treated to seeds after 3 days
A further experiment deals with Pythium. In words: microbe, parasite or virus in culture. The settings on record: read-out: GI.
Another experiment concerns Athelia rolfsii. In words: microbe, parasite or virus in culture. Particulars: Agroathelia rolfsii, read-out: GI.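 Also: mycelial growth inhibition of the fungus, determined with an agar dilution method and read 4–5 days after treatment.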

Description for Athelia rolfsii: Fungitoxic activity against Athelia rolfsii assessed as mycelial growth inhibition at 100 ppm after 4 to 5 days by agar dilution method
Description for Pythium: Fungitoxic activity against Pythium sp. assessed as mycelial growth inhibition at 100 ppm after 4 to 5 days by agar dilution method

`CC(C)CNC(=O)/C=C/c1ccc(Cl)cc1Cl` [3-(2,4-DICHLOROPHENYL)-N-ISOBUTYLACRYLAMIDE]: the inhibition of growth at 100 ppm in experiment [1] is 7%; in experiment [2], 43%; with Pythium, 31%; in the experiment with Athelia rolfsii, 38%.

As to `CC(C)(C)NC(=O)/C=C/c1ccc(Cl)cc1Cl` [N-TERT-BUTYL-3-(2,4-DICHLOROPHENYL)ACRYLAMIDE], the inhibition of growth at 100 ppm in experiment [1] was 11%; in experiment [2], 26%; in the experiment with Pythium it was 22%; in the experiment on Athelia rolfsii, 21%.

For the compound `O=C(/C=C/c1ccccc1)NCc1ccc(Cl)cc1` [N-(4-CHLOROBENZYL)CINNAMAMIDE], the inhibition of growth at 100 ppm in experiment [1] was 6%; in experiment [2] it was 44%; in the experiment with Pythium, 33%; with Athelia rolfsii, 27%.

Consider `O=C(/C=C/c1ccccc1)NCc1ccc(Cl)cc1Cl` [N-(2,4-DICHLOROBENZYL)CINNAMAMIDE], for which the inhibition of growth at 100 ppm was determined as 0% in experiment [1], 43% in experiment [2], 41% in the experiment on Pythium and 51% in the experiment with Athelia rolfsii.

Take `CCC(C)NC(=O)/C=C/c1ccc(Cl)cc1Cl` (stereo unspecified) [N-SEC-BUTYL-3-(2,4-DICHLOROPHENYL)ACRYLAMIDE]: the inhibition of growth at 100 ppm in experiment [1] came to 21%; in experiment [2], 41%; in the experiment on Pythium, 23%; in the experiment with Athelia rolfsii, 31%.

For `CC(C)NC(=O)/C=C/c1ccc(Cl)cc1Cl` [3-(2,4-DICHLOROPHENYL)-N-ISOPROPYLACRYLAMIDE], the inhibition of growth at 100 ppm in experiment [1] was 11%; in experiment [2], 30%; in the experiment on Pythium, 28%; with Athelia rolfsii it was 31%.

Turning to `CC(C)COC(=O)/C=C/c1ccccc1` [ISOBUTYL CINNAMATE], the inhibition of growth at 100 ppm in experiment [1] is 40%; in experiment [2], 0%; with Pythium, 57%; in the experiment with Athelia rolfsii, 42%.

In the case of `Cc1ccc(C(C)C)c(OC(=O)/C=C/c2ccc(Cl)cc2)c1`, the inhibition of growth at 100 ppm in experiment [1] was found to be 36%; in experiment [2] it was 24%; in the experiment on Pythium, 6%; in the experiment on Athelia rolfsii, 39%.

In the case of `Cc1ccc(OC(=O)/C=C/c2ccc(Cl)cc2)c(C(C)C)c1`, the inhibition of growth at 100 ppm came to 41% in experiment [1], 18% in experiment [2], 13% in the experiment with Pythium and 41% in the experiment with Athelia rolfsii.

As to `CCCCCCCCCCCCCCCCNC(=O)/C=C/c1ccccc1` [N-HEXADECYLCINNAMAMIDE], the inhibition of growth at 100 ppm in experiment [1] worked out at 20%; in experiment [2] it was 75%; with Pythium, 12%; with Athelia rolfsii, 0%.

As for `CCCNC(=O)/C=C/c1ccc(Cl)cc1Cl` [3-(2,4-DICHLOROPHENYL)-N-PROPYLACRYLAMIDE], the inhibition of growth at 100 ppm in experiment [1] was determined as 18%; in experiment [2], 26%; in the experiment with Pythium, 29%; in the experiment on Athelia rolfsii, 43%.

Regarding `CCCCCCCCCCNC(=O)/C=C/c1ccccc1`, the inhibition of growth at 100 ppm in experiment [1] was 10%; in experiment [2], 15%; with Pythium, 27%; in the experiment with Athelia rolfsii, 23%.

On to `CCCCCCCCCCCCNC(=O)/C=C/c1ccccc1` [N-DODECYLCINNAMAMIDE], for which the inhibition of growth at 100 ppm was determined as 48% in experiment [1], 32% in experiment [2], 21% in the experiment with Pythium and 13% with Athelia rolfsii.

Take `Cc1ccc(NC(=O)/C=C/c2ccccc2)c(C)c1`: the inhibition of growth at 100 ppm in experiment [1] was 0%; in experiment [2], 0%; in the experiment on Pythium, 4%; in the experiment with Athelia rolfsii it was 5%.
